Like-named read-outs stand apart in the source and are kept apart here. Strand notation (5' to 3'): a small letter for the sugar, then the base; units joined by * are phosphorothioate-linked, units joined directly phosphodiester-linked; [ ] holds rarer units or linkages, { } end groups; capitals alone tell only the bases. d = 2'-deoxy (DNA)
Columns and labels:
Murine IL-6 secretion = settings: cited from earlier work
B cell proliferation = B cell proliferation induced by a stimulatory CpG motif; oligonucleotide added alone or with inhibitory ODN 1735; cited from earlier work
NK Lytic Activity = settings: cited from earlier work
[1] = test system: human B cell proliferation; settings: human spleen cells or PBNC, ODN at 6 μml, 4-7 days, 3H thymidine, cited from earlier work
[2] = test system: CpG-induced cytokine secretion; settings: RALB/c spleen cells, 24 hr, ELISA, cited from earlier work; for IL-12 secretion: 2 × 10^7 cells/ml, indicated ODN alone; for CpG-S-induced IL-12 secretion: IL-12 secretion induced by addition of CpG ODN 1619 at 30 μg/ml
[3] = test system: ODN-induced cytokine expression; settings: ELISA on supernatants from DBA/2 spleen cells, 2 × 10^7 cells/ml, 24 hr, ODN at 30 μg/ml; cited from earlier work
NK LU = settings: PBMC, phosphorothioate ODN, cited from earlier work
[4] = test system: TNF-α and IL-12 expression; settings: cell line 3774, no activator, inhibitor at head concentration: Bafilomycin 250 nM, Chloroquine 2.5 μg/ml, Monensin 10 μM, cited from earlier work; for TNF-α, activator: Medium (inhibitor alone): NAC 50 mM, TPCK 50 μM, Gliotoxin 0.1 μg/ml, Bisgliotoxin 0.1 μg/ml, medium alone 37; for IL-12, activator: Medium (inhibitor alone): medium alone 147
[5] = test system: Mouse Apolipoprotein B/GAPDH mRNA; assay: Apolipoprotein B mRNA assay in transfected mouse primary hepatocytes (Example 88); format: cell-based
Experimental: C57BL6 male mice, 7 weeks of age were used to extract and plate mouse primary hepatocytes in 96-well plates (without overlay) (Celsis/Bioreclamation IVT). Transfection of primary hepatocytes was carried out with lipofectin (Life Technologies, cat. No. 18292-037) using the manufacturer's protocol, using 0.5 ul of Lipofectin per 96-plate well. Twelve, 1:3 siRNA duplex dilutions were created starting at 6 uM. 10 ul of 10× oligo was then lipoplexed with a prepared mixture of 9.5 ul of In vitro Gro HI Medium (Celsis Cat. Z99009) serum-free medium and 0.5 ul of Lipofectin per well. After a 10-15 minute incubation, 20 ul of lipoplexed oligo was added to primary hepatocytes in 80 ul of In vitro Gro HI Medium to bring the final volume to 100 ul per well. 24 hours after transfection, cells were lysed.
Total mRNA was purified from cell lysates using MagMAX™-96 Total RNA Isolation Kit (Life Technologies, AM1830); 15 ul of cDNA was synthesized with High Capacity cDNA Reverse Transcription Kit with RNase Inhibitor (Life Technologies, 4374967). Gene expression was evaluated by Real-Time PCR on a Lightcycler 480 (Roche) using a Probes Master Mix (Roche, 04 707 494 001) according to manufacturer's protocol using the following primers: Mouse apolipoprotein B primers:
[Template: (GenBank Accession Number M35186)]
The delta delta Ct method was used to calculate values. […]

(Ap)9A = settings: duplex with (Ap)9A; cited from earlier work
T cell proliferation = settings: US 6,218,371 Table 3; cited from earlier work
CD40 = settings: US 6,218,371 Table 3; cited from earlier work
CD86 = settings: US 6,218,371 Table 3; cited from earlier work
[6] = T cell depleted spleen cells from DBA/2 mice, phosphodiester O-ODN 20 μM, 24 hr, mean ± SD of triplicates
[7] = expt. 1 (one donor), US 6,214,806 Table 5
[8] = expt. 1, cells alone 0.00, US 6,239,116 Table 11

## 5b (DNA ATGGAAGGTCCAACGTTCTC; chemistry not given here) [Oligonucleotide 5b]
Murine IL-6 secretion; [6]
  IL-6: 1124.5 ± 126.2 pg/mL
Murine IL-6 secretion; murine IL-6 secretion
  IL-6: 1124.5 ± 126.2 pg/mL

## 5c (DNA ATCGACTCTCGAGCGTTCTC; chemistry not fully specified) [Oligonucleotide 5c]
Murine IL-6 secretion; [6]
  IL-6: 1783.0 ± 189.5 pg/mL
Murine IL-6 secretion; murine IL-6 secretion
  IL-6: 1783.0 ± 189.5 pg/mL

## 5d (DNA ATGGAAGGTCCAGTGTTCTC; chemistry not given here) [Oligonucleotide 5d]
Murine IL-6 secretion; [6]
  IL-6: ≤10 pg/mL
Murine IL-6 secretion; murine IL-6 secretion
  IL-6: ≤10 pg/mL

## 5e (DNA ATCGACTCTCGAGCCTTCTC; Z modified cytosine, further chemistry not given here) [Oligonucleotide 5e]
Murine IL-6 secretion; [6]
  IL-6: 851.1 ± 114.4 pg/mL
Murine IL-6 secretion; murine IL-6 secretion
  IL-6: 851.1 ± 114.4 pg/mL

## 5f (DNA ATCGACTCTCGAGCGTTCTC; Z-modified nucleotides, chemistry not fully specified) [Oligonucleotide 5f]
Murine IL-6 secretion; [6]
  IL-6: ≤10 pg/mL
Murine IL-6 secretion; murine IL-6 secretion
  IL-6: ≤10 pg/mL

## 1720 (DNA 1720 (TCCATGAGCTTCCTGATGCT); as printed in the source, key not given here) [Oligonucleotide 1720]
B cell proliferation
  cpm (B cell proliferation): 601 cpm

## 1841 (DNA TCCATAGCGTTCCTAGCGTT; chemistry not given here) [Oligonucleotide 1841]
NK Lytic Activity; human PBMC cultured with ODN 6 μg/ml for 24 hr, lysis of 51Cr-labeled K562 cells
  NK Lytic Activity (LU): 1.45 LU
NK Lytic Activity; human PBMC, ODN 6 μg/ml for 24 hr, lysis of Cr-labeled K562 cells, cells alone 0.01
  LU (NK lytic activity): 1.45 LU
[1]; US 6,214,806 Table 6
  Stimulation Index, expt. 1: 3
[1]; US 6,239,116 Table 12
  Stimulation Index, expt. 1: 3

## 1895 (DNA GCGCGCGCGCGCGCGCGCGC; chemistry not given here) [Oligonucleotide 1895]
[2]
  IL-12 secretion: 123 pg/mL
  CpG-S-induced IL-12 secretion: 2719 pg/mL

## 1896 (DNA CCGGCCGGCCGGCCGGCCGG; chemistry not given here) [Oligonucleotide 1896]
[2]
  IL-12 secretion: 292 pg/mL
  CpG-S-induced IL-12 secretion: 2740 pg/mL

## 1952 (DNA TCCATGTCGTTCCGCGCGCG; chemistry not given here) [Oligonucleotide 1952]
[3]
  ODN-induced cytokine expression IFN-γ: 2135 pg/mL
  ODN-induced cytokine expression IL-6: 559 pg/mL
  ODN-induced cytokine expression IL-12: 1615 pg/mL

## 1953 (DNA TCCATGTCGTTCCTGCCGCT; chemistry not given here) [Oligonucleotide 1953]
[3]
  ODN-induced cytokine expression IFN-γ: 2000 pg/mL
  ODN-induced cytokine expression IL-6: 557 pg/mL
  ODN-induced cytokine expression IL-12: 1854 pg/mL

## 1959 (DNA GCGGCGGGCGGCGCGCGCCC; chemistry not given here) [Oligonucleotide 1959]
[2]
  IL-12 secretion: 270 pg/mL
  CpG-S-induced IL-12 secretion: 2539 pg/mL

## 1963 (DNA TCCTTGTCGTTCCTGTCGTT; DNA, all phosphorothioate, methylation of C not given here) [Oligonucleotide 1963]
[1]; US 6,214,806 Table 6
  Stimulation Index, expt. 1: 3
[1]; US 6,239,116 Table 12
  Stimulation Index, expt. 1: 3
NK LU; [7]
  NK LU, expt. 1: 3.42 LU
NK LU; [8]
  NK LU, expt. 1: 3.42 LU

## 1966 (DNA dT*dC*dG*dT*dC*dG*dC*dT*dG*dT*dC*dT*dC*dC*dG*dC*dT*dT*dC*dT*dT) [Oligonucleotide 1966]
NK LU; [7]
  NK LU, expt. 1: 2.62 LU
NK LU; [8]
  NK LU, expt. 1: 2.62 LU

## 1990 (DNA dT*dC*dC*dA*dT*dG*dC*dG*dT*dG*dC*dG*dT*dG*dC*dG*dT*dT*dT*dT) [Oligonucleotide 1990]
NK LU; [7]
  NK LU, expt. 1: 2.10 LU
NK LU; [8]
  NK LU, expt. 1: 2.10 LU

## 1991 (DNA dT*dC*dC*dA*dT*dG*dC*dG*dT*dT*dG*dC*dG*dT*dT*dG*dC*dG*dT*dT) [Oligonucleotide 1991]
NK LU; [7]
  NK LU, expt. 1: 0.89 LU
NK LU; [8]
  NK LU, expt. 1: 0.89 LU

## 2037 (DNA TCCATGCCGTTCCTGCCGTT; chemistry not given here) [Oligonucleotide 2037]
[2]
  IL-12 secretion: 423 pg/mL
  CpG-S-induced IL-12 secretion: 2847 pg/mL

## 19792 (DNA TCCATGTCGTTCCTGTCGTT; phosphorothioate, Z modified cytosine, chemistry not fully specified) [Oligonucleotide 19792]
NK LU; [7]
  NK LU, expt. 1: 1.32 LU

## CCN(CC)CCCC(C)Nc1ccnc2cc(Cl)ccc12 (stereo not shown) [Chloroquine, chloroquine, reference compound]
[4]
  TNF-α, activator: Medium (inhibitor alone): 27 pg/mL
  IL-12, activator: Medium (inhibitor alone): 20 pg/mL

## C[Si](C)(C)C[C@@H](O)[C@@H]1CCCN1 [Compound 5a, (S)-2-(Trimethylsilyl)-1-((S)-1-pyrrolidin-2-yl)ethanol]
Murine IL-6 secretion; [6]
  IL-6: 1096.4 ± 372.0 pg/mL
Murine IL-6 secretion; murine IL-6 secretion
  IL-6: 1096.4 ± 372.0 pg/mL

## CN1C(=O)[C@]23CC4=CC=C[C@H](O)[C@H]4N2C(=O)[C@@]1(CO)SS3 [Gliotoxin]
[4]
  TNF-α, activator: Medium (inhibitor alone): 17 pg/mL

## CC[C@@]1([C@@H]2O[C@@H]([C@H]3O[C@@](O)(CO)[C@H](C)C[C@@H]3C)C[C@@H]2C)CC[C@H]([C@]2(C)CC[C@]3(C[C@H](O)[C@@H](C)[C@@H]([C@@H](C)[C@@H](OC)[C@H](C)C(=O)O)O3)O2)O1 [Monensin]
[4]
  TNF-α, activator: Medium (inhibitor alone): 22 pg/mL
  IL-12, activator: Medium (inhibitor alone): 73 pg/mL

## CC(=O)N[C@@H](CS)C(=O)O [NAC]
[4]
  TNF-α, activator: Medium (inhibitor alone): 10 pg/mL

## Cc1ccc(S(=O)(=O)N[C@@H](Cc2ccccc2)C(=O)CCl)cc1 [TPCK]
[4]
  TNF-α, activator: Medium (inhibitor alone): 24 pg/mL

## (All(Rp))-GsTs5mCs5mCs5mCsTsGsAsAsGsAsTsGsTs5mCsAsAsTsGs5mC (DNA GTCCCTGAAGATGTCAATGC; chemistry not fully specified) [ONT-82]
[5]; relative IC50, bottom 0 and top 100 constrained, read-out: IC50 for Suppression of Mouse Apolipoprotein B/GAPDH mRNA Levels
  IC50: 0.0644 µM
[5]; suppression of ApoB/GAPDH mRNA, bottom 0 and top 100 constrained
  Hill Slope: −0.3

## (Rp)-(Ups)9U
(Ap)9A
  Tm value of duplex compared with natural-(Up)9U/(Ap)9A: higher Tm value

## (Sp)-(Ups)9U
(Ap)9A
  Tm value of duplex compared with natural-(Up)9U/(Ap)9A: did not form a duplex

## Bafilomycin
[4]
  TNF-α, activator: Medium (inhibitor alone): 46 pg/mL
  IL-12, activator: Medium (inhibitor alone): 102 pg/mL

## GM-CSF
T cell proliferation
  T cell proliferation: 13.3
CD40
  CD40 (4 Exp.): 2.5
CD86
  CD86 (5 Exp): 1.9
